From patent US6391538B1, “Stabilization of implantable bioprosthetic tissue” (The Children's Hospital of Philadelphia, priority 2000, dated 2002)
Values joined by “and” are separate entries in the source; they are usually repeats but may differ in a detail not shown here. Identical values can stand only once.

What was measured:
[1] = system: porcine aortic cusps; assay: Subdermal calcification study in rats, porcine aortic cusps; type: in vivo
Protocol: In a first method of cross-linking bioprosthetic tissue, four separate cross-linking solutions were prepared:
1) 0.1 molar TGA in 0.05 molar HEPES buffer at pH 7.4,
2) 0.1 molar TGA in 0.05 boric acid-borax buffer at pH 9.0,
3) 0.1 molar Denacol 521™ (Nagase Chemical Co., Japan) in 0.05 molar HEPES buffer at pH 7.4, and
4) 0.05 molar HEPES buffer (pH 7.4) containing 0.6% (v/v) glutaraldehyde.
Twenty fresh porcine aortic cusps were added to separate 100 milliliter aliquots of each of the four solutions (i.e. using a total of eighty cusps). The cusps and solutions were maintained with constant shaking at room temperature for up to ten days without changing the solution. At selected times, a small section was removed from each of the cusps in each of the cross-linking reactions and analyzed by differential scanning calorimetry to determine the thermal shrinkage temperature (Ts). Cross-linking reactions were considered complete when the value of Ts remained substantially constant over time. Cusps treated in this manner were maintained in the cross-linking solution for more than 20 days prior to use in subsequent experiments. […]
Subdermal calcification studies were performed in rats using tissues treated and stored as described above. Following treatment by either of the two methods described above, the tissues were rinsed thoroughly with excess sterile saline solution immediately prior to implantation. Tissues were implanted subdermally (1 tissue sample per rat, 10 rats per treatment method). Twenty-one days following implantation, the tissues were recovered and their calcium content was measured in samples taken from each tissue.

[2] = system: A10 cells; assay: Relative biocompatibility of treated collagen surfaces, survival of A10 cells; type: cell-based; conditions: A10 cells on denatured bovine type I collagen film treated with 0.2% (v/v) glutaraldehyde (24 hours, room temperature) or 0.1 molar TGA (24 hours, 37° C.), pH 7.4; about 24 hours of culturing
Protocol: Denatured (100° C., 1 hour) bovine type I collagen was applied as a film to duplicate culture surfaces. One surface was treated by contacting it with a solution comprising 0.2% (v/v) glutaraldehyde at pH 7.4 for 24 hours at room temperature (i.e. about 20° C.). Another surface was treated by contacting it with a solution comprising 0.1 molar TGA at pH 7.4 for 24 hours at 37° C. Both surfaces were rinsed extensively using phosphate-buffered saline (pH 7.4) in order to remove non-reacted compounds. A10 cells (obtained from the American Type Culture Collection; Gaithersburg, Md.) were provided to both surfaces, and survival of the cells was monitored. A high proportion (estimated at 30% or more of cells) which were provided to the glutaraldehyde-treated collagen surface appeared to be dead following about 24 hours of culturing, with significant amounts of cell debris observed.

[3] = system: porcine aortic wall segments; assay: Subdermal calcification study in rats, porcine aortic wall; type: in vivo; conditions: Group III: TGA second method, then treated with and stored in formalin-containing solution, 21 days, average ± standard error
Protocol: (§1) In a second method of cross-linking bioprosthetic tissue, separate 100 milliliter aliquots of […] TGA in 0.10 molar HEPES buffer at pH 7.4 were prepared. The following were added to individual aliquots of this solution.
(§2) The tissues and solutions were maintained at room temperature with constant shaking for up to seven days, during which time the pH of each cross-linking reaction was monitored. For selected reactions, the reaction mixture solution was replaced every 24 hours with a freshly-prepared 100 milliliter aliquot of 0.1 molar TGA in 0.10 molar HEPES buffer at pH 7.4. At selected times, a small section was removed from each tissue in each of the stabilization reaction mixtures, and the section was analyzed by differential scanning calorimetry to determine the thermal shrinkage temperature (Ts). After seven days of reaction, one group of each of the tissues was transferred to 100 milliliters of 0.05 molar phosphate buffer containing 4% (v/v) formalin and stored in this solution prior to use in subsequent experiments.
(§3) Subdermal calcification studies were performed in rats using tissues treated and stored as described above. […] Twenty-one days following implantation, the tissues were recovered and their calcium content was measured in samples taken from each tissue.

[4] = system: bovine pericardium; assay: Subdermal calcification study in rats, bovine pericardium; type: in vivo; conditions: Group III: TGA second method, then treated with and stored in formalin-containing solution, 21 days, average ± standard error
Protocol: as §1, §2, §3

[5] = Thermal shrinkage temperature (Ts) by differential scanning calorimetry; type: physicochemical, porcine; conditions: cusp tissue, 0.1 molar TGA and 0.1 molar HEPES, solution replenished every 24 hours, seven days
Protocol: (§4) Twenty fresh porcine aortic cusps were added to separate 100 milliliter aliquots of each of the four solutions (i.e. using a total of eighty cusps). The cusps and solutions were maintained with constant shaking at room temperature for up to ten days without changing the solution. At selected times, a small section was removed from each of the cusps in each of the cross-linking reactions and analyzed by differential scanning calorimetry to determine the thermal shrinkage temperature (Ts). Cross-linking reactions were considered complete when the value of Ts remained substantially constant over time. Cusps treated in this manner were maintained in the cross-linking solution for more than 20 days prior to use in subsequent experiments.
as §2, with “After seven days of reaction, one group of each of the tissues was transferred to 100 milliliters of 0.05 molar phosphate buffer containing 4% (v/v) formalin and stored in this solution prior to use in subsequent experiments.” left out

[6] = pH monitoring of cross-linking reactions; type: physicochemical
Protocol: as §4
as §2, with “After seven days of reaction, one group of each of the tissues was transferred to 100 milliliters of 0.05 molar phosphate buffer containing 4% (v/v) formalin and stored in this solution prior to use in subsequent experiments.” left out

[7] = cusps cross-linked with 0.1 molar TGA in borate buffer pH 9.0, first method, subdermal in rats, 21 days

SMILES | calcium content, average value ± standard error ([1]; cusps cross-linked with 0.6% (v/v) glutaraldehyde in 0.05 molar HEPES pH 7.4, first method, subdermal in rats, 21 days) | calcium content of individual tissue samples ([1]; cusps cross-linked with 0.6% (v/v) glutaraldehyde in 0.05 molar HEPES pH 7.4, first method, subdermal in rats, 21 days, listed as A) | proportion of cells which appeared to be dead [2] | calcium content, average value ± standard error ([1]; D: cusps cross-linked with 0.1 molar TGA in HEPES buffer pH 7.4, first method, subdermal in rats, 21 days) | calcium content of individual tissue samples ([1]; D: cusps cross-linked with 0.1 molar TGA in HEPES buffer pH 7.4, first method, subdermal in rats, 21 days, listed as D) | calcium content of individual tissue samples [1, 7] | calcium content, average value ± standard error [1, 7] | Calcium (micrograms/milligram of dry tissue) ([1]; porcine aortic cusps, Group III: TGA second method, then treated with and stored in formalin-containing solution, subdermal in rats, 21 days, average ± standard error) | post-implantation calcification of the tissue, result in words ([1]; tissues treated by first and second stabilization methods, compared with glutaraldehyde treatment) | Calcium (micrograms/milligram of dry tissue) [3] | Calcium (micrograms/milligram of dry tissue) [4] | thermal shrinkage temperature (Ts) [5] | pH of the stabilization reaction mixture ([6]; first stabilization method, solution not changed, seven-day reaction period) | pH of the stabilization reaction mixture ([6]; second method, reaction mixture solution replaced every 24 hours)
O=CCCCC=O [glutaraldehyde, reference compound] | 106.69 ± 9.81 micrograms of calcium per milligram of tissue | 63.28 micrograms of calcium per milligram of tissue and 72.44 micrograms of calcium per milligram of tissue and 117.67 micrograms of calcium per milligram of tissue and 131.43 micrograms of calcium per milligram of tissue and 158.70 micrograms of calcium per milligram of tissue and 140.34 micrograms of calcium per milligram of tissue and 141.91 micrograms of calcium per milligram of tissue and 94.44 micrograms of calcium per milligram of tissue and 89.60 micrograms of calcium per milligram of tissue and 87.42 micrograms of calcium per milligram of tissue | ≥ 30% | – | – | – | – | – | – | – | – | – | – | –
C1OC1CN(CC1CO1)CC1CO1 (stereo not drawn) [TGA, triglycidyl amine] | – | – | substantially undetectable proportion | 4.13 ± 2.14 micrograms of calcium per milligram of tissue | 1.59 micrograms of calcium per milligram of tissue and 17.58 micrograms of calcium per milligram of tissue and 1.107 micrograms of calcium per milligram of tissue and 1.021 micrograms of calcium per milligram of tissue and 0.615 micrograms of calcium per milligram of tissue and 1.30 micrograms of calcium per milligram of tissue and 8.75 micrograms of calcium per milligram of tissue and 1.14 micrograms of calcium per milligram of tissue | 1.318 micrograms of calcium per milligram of tissue and 0.811 micrograms of calcium per milligram of tissue and 1.31 micrograms of calcium per milligram of tissue and 2.13 micrograms of calcium per milligram of tissue and 1.20 micrograms of calcium per milligram of tissue and 3.85 micrograms of calcium per milligram of tissue | 1.769 micrograms of calcium per milligram of tissue | 18.07 ± 9.19 micrograms/milligram of dry ti | inhibits post-implantation calcification of the tissue relative to glutaraldehyde treatment | 21.17 ± 1.81 micrograms/milligram of dry ti | 7.43 ± 3.47 micrograms/milligram of dry ti | about 83 °C | ~11.5 | ≤ 8
